Patent US5830855A, “Lipodepsipeptides as antifungal and fungicidal agents” (priority 1996, dated 1998)
Numbered stars: 1 amine (or outer) side, 2 acyl side, 3 side chain; on linkers, the order of the positions; unused ones are H or OH. Bridge positions count the residues as written; N and C are the ends. Square brackets hold non-standard residues; d marks the D form. Peptide text beside a SMILES is read from it. * marks the point of attachment. ξ: configuration not given here. Asp(3S-OH) = N[C@H](C(=O)O)[C@H](O)C(=O)O; Thr(4-Cl) = N[C@H](C(=O)O)[C@H](O)CCl; ξAsp(3ξ-OH) = NC(C(=O)O)C(O)C(=O)O; X3 = O=C(C(N[*:1])C(O)CCl)[*:2]; X1 = CCCCCCCCC[C@@H](O)CC(=O)*; X2 = CCCCCCCCCCCC(O)CC(=O)*; dDab = NCC[C@@H](N)C(=O)O; Dab = NCC[CH](N)C(=O)O; Orn = NCCC[CH](N)C(=O)O; hSer = N[CH](CCO)C(=O)O; Dhb = C/C=C(\N)C(=O)O

Tests used:
Mucor spp. = experiment: Broth microdilution MIC; type: cell-based; conditions: Table 1 (MICs), 5 isolates, 48 hr
Description: Medium: Liquid RPMI 1640 (RPMI) medium with L-glutamine and without sodium bicarbonate (Sigma Chemical Co., R-6504; St. Louis, Mo.) buffered with 0.165M MOPS (34.54 g/liter) was used for in vitro antifungal tests. The medium was adjusted to pH 7.0 with 10M NaOH and filter sterilized.
Lipodepsipeptide Dilutions: All stock drug solution concentrations were at least 10-fold higher than the highest concentration tested. AmB, ketoconazole, and the test compounds (SR-E, ST-B, and SS-A) were dissolved in sterile distilled water, 0.2N HCl, and 0.001N HCl, respectively. Each stock solution was diluted to 2× the highest concentration of drug tested with RPMI. Two-fold dilutions were made with RPMI medium.
Preparation of Inoculum Suspensions: On Sabouraud dextose agar (SDA; BBL, Becton and Dickinson and Co., Cockeysville, Md.) all isolates were subcultured at least twice before use to ensure purity and viability. Candida spp. and Saccharomyces cerevisiae were grown for 24 hr at 35° C. Isolates of Cryptococcus neoformans were grown for 48 hr at 35° C. Yeast cells from at least five 1-mm-diameter colonies were suspended in 5 ml of sterile 0.85% saline. The resulting suspension was vortexed for 15 sec. The turbidity of each mixed suspension was measured at 530 nm and adjusted to 1×10^6 to 5×10^6 CFU/ml by the NCCLS spectrophotometric method described by National Committee for Clinical Laboratory Standards. 1992. Reference method for broth dilution antifungal susceptibility testing of yeasts; proposed standard, NCCLS document M27-P (ISBN 1-56238-186-5). NCCLS, Villanova. The final transmission of each yeast suspension ranged from 85-87%.
Aspergillus fumigatus and Mucor spp. were grown for 1 wk at 35° C. The dermatophytes, Microsporum spp. and Trichophyton spp., were grown for two wk at 30° C. Fungal spores were washed from the plates of all good spore formers (A. fumigatus, Mucor spp., Microsporum canis and Trichophyton spp.) by placing 5 ml of 0.85% saline with 0.2% Tween 80 on the plates and mixing with an inoculating loop. The spore/mycelium suspension was drawn off with a pipette and allowed to settle for at least 5 min. For the poor spore-forming Microsporum audouinii, the procedure was the same except the spore/mycelial suspension was homogenized with a ground glass tissue homogenizer and then allowed to settle for at least 5 min. A small amount of the supernatant was transferred to 5 ml of sterile saline and vortexed. The stock suspensions of all filamentous fungi were measured at 530 nm and adjusted to 85-87% transmission. The concentration (1×10^6 to 5×10^6 CFU/ml) was determined by hemacytometer count or plate count on SDA. All stock suspensions were diluted 1000-fold with RPMI, or 2× the final desired test inocula. The 2× inoculum was diluted 1:1 when the wells were inoculated, and the desired inoculum size was achieved.
Broth Microdilution Test: Broth microdilution tests were performed using sterile, disposable, multiwell microdilution plates (96 round U-bottom wells) (Falcon 3077; Becton and Dickinson Labware, Lincoln Park, N.J.). The drugs (2× concentrations) were dispensed into the wells of rows number 1 to 10 of the microdilution plates in 100 μl volumes from highest drug concentration to lowest drug concentration. Each well was inoculated with 100 μl of the corresponding 2× concentrated fungal suspension. The wells of row 11 contained the inoculum with drug-free media as a positive growth control and the wells of row 12 contained uninoculated-drug-free medium as a sterility control.
Incubation and Scoring of MIC: All cultures were incubated without shaking at the temperature used during subculture. Incubation times were 48 hr for Candida spp., S. cerevisiae, A. fumigatus, and Mucor spp; 72 hr for C. neoformans; and 7 days for Microsporum and Trichophyton spp. […]

[1] = system: lymphocytes (peripheral blood mononuclear cells); experiment: Lymphocyte proliferation in the absence of mitogens ([3H]-thymidine incorporation); type: cell-based, human; conditions: SR-E at concentrations of 5.72 μM and lower; FIG. 3
Description: (§1) Lipodepsipeptide for Immunosuppression Experiments: SR-E was purified as previously described in Bidwai, A. P., Bachmann, R. C. and Takemoto, J. Y., "Mechanism of action of Pseudomonas syringae phytotoxin syringomycin". Plant Physiol. 83:39-43 (1987). A stock solution (10 mg per ml) was prepared in RPMI1640 culture media, aliquoted and stored frozen at -20°.
(§2) Mitogen-induced lymphocyte proliferation: Peripheral blood mononuclear cells (MNC) (containing lymphocytes and monocytes) were separated by Ficoll-Hypaque density-gradient centrifugation using techniques well known in the art. Mitogen-induced lymphocyte proliferation was determined as previously described in Singh, V. K., "Stimulatory effect of corticotropin-releasing neurohormone on human lymphocyte proliferation and interleukin-2 receptor expression". J.Neuroimmunol.23.257-262 (1989). Briefly, MNC were cultured in triplicate in 96-well microtiter plates (Corning, Inc.). […]
(§3) [^3 H]-thymadine Incorporation: Cells were pulse-labeled for 4 hours with 0.5 μCi/well of [^3 H]methyl-thymidine (spec. act.=25 Ci/mmol from Amersham Intl.). […] To each vial, 2 ml of CytoScint fluid (ICN Biomedicals) was dispensed and the radioactivity determined using a liquid scintillation counter (Tri-Carb, Packard). The rate of [^3 H]-thymidine incorporation by MNC was calculated as counts per minute per 10 ^5 cells.

[2] = system: pokeweed mitogen (PWM)-induced lymphocyte proliferation; experiment: PWM-induced lymphocyte proliferation ([3H]-thymidine incorporation); type: cell-based, human
Description: as §1
(§4) Lymphocyte stimulation: Lymphocyte stimulation was performed with three different mitogens: phytohemagglutinin (PHA), pokeweed mitogen (PWM), and monoclonal antibody to CD3 (anti-CD3). […]
as §2, with “expression".” for “expression". J.Neuroimmunol.23.257-262 (1989). Briefly, MNC were cultured in triplicate in 96-well microtiter plates (Corning, Inc.).”
as §3, with “The rate of [^3 H]-thymidine incorporation by MNC was calculated as counts per minute per 10 ^5 cells.” left out

[3] = system: monoclonal antibody to CD3 (anti-CD3)-induced lymphocyte proliferation; experiment: anti-CD3-induced lymphocyte proliferation ([3H]-thymidine incorporation); type: cell-based, human
Description: as §1, §4
as §2, with “expression".” for “expression". J.Neuroimmunol.23.257-262 (1989). Briefly, MNC were cultured in triplicate in 96-well microtiter plates (Corning, Inc.).”
as §3, with “The rate of [^3 H]-thymidine incorporation by MNC was calculated as counts per minute per 10 ^5 cells.” left out

SMILES: C/C=C1\NC(=O)C(C(C)O)NC(=O)C(CCCN)NC(=O)C(CCO)NC(=O)CNC(=O)C(CCN)NC(=O)C(NC(=O)CC(O)CCCCCCCCCCC)COC(=O)C(C(O)CCl)NC(=O)C(C(O)C(=O)O)NC1=O (stereo not drawn) [ST-B, Syringotoxin B] (X2-S[Dab]G[hSer][Orn]T[Dhb][ξAsp(3ξ-OH)][X3]; ester 1-C; configuration not given here)
- MIC range (Mucor spp.): 6.25 to 100 µg/mL

SMILES: C/C=C1\NC(=O)[C@H](Cc2ccccc2)NC(=O)[C@H](CCCN=C(N)N)NC(=O)[C@@H](CCN)NC(=O)[C@H](CCN)NC(=O)[C@@H](CO)NC(=O)[C@@H](NC(=O)C[C@H](O)CCCCCCCCC)COC(=O)[C@H]([C@H](O)CCl)NC(=O)[C@H]([C@H](O)C(=O)O)NC1=O [SR-E, Syringomycin-E] (X1-S[dS][Dab][dDab]RF[Dhb][Asp(3S-OH)][Thr(4-Cl)]; ester 1-C)
- effect on cell proliferation in the absence of mitogens ([3H]-thymidine incorporation) [1]: no effect
- inhibition of PWM response ([2]; 1.14 μM): significantly inhibited
- suppression of PWM response ([2]; 5.72 μM, p=0.017): 60%
- significant inhibition of anti-CD3 response ([3]; 1.14 μM): not
- suppression of anti-CD3 response ([3]; 5.72 μM, p=0.02): 30%
